# Reference: ChEMBL document CHEMBL4138123, “Design, synthesis and biological evaluation of novel pyrazolochalcones as potential modulators of PI3K/Akt/mTOR pathway and inducers of apoptosis in breast cancer cells” (Eur J Med Chem, 2017)
# Experiments:
# Format in all cases: functional
# [1] = tested on: NCI-H23; assay: Cytotoxicity against human NCI-H23 cells assessed as growth inhibition after 48 hrs by sulforhodamine B assay; conditions: NCI-H23, 48 h; for CC50: read-out: LC50 (the source's name)
# [2] = tested on: OVCAR-3; assay: Cytotoxicity against human OVCAR3 cells assessed as cell growth at 0.1 uM after 48 hrs by sulforhodamine B assay relative to control; conditions: OVCAR-3, 48 h, read-out: Activity
# [3] = tested on: SF-268; assay: Cytotoxicity against human SF268 cells assessed as growth inhibition after 48 hrs by sulforhodamine B assay; conditions: SF-268, 48 h; for CC50: read-out: LC50 (the source's name)
# [4] = tested on: Hs-578T; assay: Cytotoxicity against human Hs 578T cells assessed as cell growth at 1 uM after 48 hrs by sulforhodamine B assay relative to control; conditions: read-out: Activity
# [5] = tested on: SW-620; assay: Cytotoxicity against human SW620 cells assessed as cell growth at 100 uM after 48 hrs by sulforhodamine B assay relative to control; conditions: SW-620, 48 h, read-out: Activity
# [6] = tested on: CCRF-CEM; assay: Cytotoxicity against human CCRF-CEM cells assessed as growth inhibition after 48 hrs by sulforhodamine B assay
# [7] = tested on: MCF7; assay: Cytotoxicity against human MCF7 cells assessed as cell growth at 0.01 uM after 48 hrs by sulforhodamine B assay relative to control; conditions: MCF7, 48 h, read-out: Activity
# [8] = tested on: SW-620; assay: Cytotoxicity against human SW620 cells assessed as cell growth at 0.01 uM after 48 hrs by sulforhodamine B assay relative to control; conditions: SW-620, 48 h, read-out: Activity
# [9] = tested on: SK-MEL-2; assay: Cytotoxicity against human SK-MEL-2 cells assessed as growth inhibition after 48 hrs by sulforhodamine B assay; conditions: SK-MEL-2, 48 h
# [10] = tested on: 786-0; assay: Cytotoxicity against human 786-0 cells assessed as cell growth at 1 uM after 48 hrs by sulforhodamine B assay relative to control; conditions: 786-0, 48 h, read-out: Activity
# [11] = tested on: NCI-H322M; assay: Cytotoxicity against human NCI-H322M cells assessed as cell growth at 10 uM after 48 hrs by sulforhodamine B assay relative to control; conditions: read-out: Activity
# [12] = tested on: M14; assay: Cytotoxicity against human M14 cells assessed as cell growth at 10 uM after 48 hrs by sulforhodamine B assay relative to control; conditions: M14, 48 h, read-out: Activity
# [13] = tested on: SNB-19; assay: Cytotoxicity against human SNB19 cells assessed as cell growth at 10 uM after 48 hrs by sulforhodamine B assay relative to control; conditions: SNB-19, 48 h, read-out: Activity
# [14] = tested on: RPMI-8226; assay: Cytotoxicity against human RPMI8226 cells assessed as cell growth at 0.01 uM after 48 hrs by sulforhodamine B assay relative to control; conditions: RPMI-8226, 48 h, read-out: Activity
# [15] = tested on: OVCAR-3; assay: Cytotoxicity against human OVCAR3 cells assessed as cell growth at 1 uM after 48 hrs by sulforhodamine B assay relative to control; conditions: OVCAR-3, 48 h, read-out: Activity
# [16] = tested on: PC-3; assay: Cytotoxicity against human PC3 cells assessed as cell growth at 10 uM after 48 hrs by sulforhodamine B assay relative to control; conditions: PC-3, 48 h, read-out: Activity
# [17] = tested on: UO-31; assay: Cytotoxicity against human UO31 cells assessed as cell growth at 0.1 uM after 48 hrs by sulforhodamine B assay relative to control; conditions: UO-31, 48 h, read-out: Activity
# [18] = tested on: CCRF-CEM; assay: Cytotoxicity against human CCRF-CEM cells assessed as cell growth at 100 uM after 48 hrs by sulforhodamine B assay relative to control; conditions: read-out: Activity
# [19] = tested on: U-251; assay: Cytotoxicity against human U251 cells assessed as cell growth at 0.1 uM after 48 hrs by sulforhodamine B assay relative to control; conditions: U-251, 48 h, read-out: Activity
# [20] = tested on: MDA-MB-231; assay: Cytotoxicity against human MDA-MB-231 cells assessed as cell growth at 1 uM after 48 hrs by sulforhodamine B assay relative to control; conditions: MDA-MB-231, 48 h, read-out: Activity
# [21] = tested on: SN12C; assay: Cytotoxicity against human SN12C cells assessed as cell growth at 100 uM after 48 hrs by sulforhodamine B assay relative to control; conditions: read-out: Activity
# [22] = tested on: HL-60(TB); assay: Cytotoxicity against human HL-60(TB) cells assessed as cell growth at 10 uM after 48 hrs by sulforhodamine B assay relative to control; conditions: HL-60, 48 h, read-out: Activity
# [23] = tested on: NCI-H23; assay: Cytotoxicity against human NCI-H23 cells assessed as cell growth at 10 uM after 48 hrs by sulforhodamine B assay relative to control; conditions: NCI-H23, 48 h, read-out: Activity
# [24] = tested on: MDA-MB-468; assay: Cytotoxicity against human MDA-MB-468 cells assessed as growth inhibition after 48 hrs by sulforhodamine B assay; conditions: MDA-MB-468, 48 h
# [25] = tested on: NCI-H522; assay: Cytotoxicity against human NCI-H522 cells assessed as cell growth at 100 uM after 48 hrs by sulforhodamine B assay relative to control; conditions: NCI-H522, 48 h, read-out: Activity
# [26] = tested on: HOP-62; assay: Cytotoxicity against human HOP62 cells assessed as cell growth at 10 uM after 48 hrs by sulforhodamine B assay relative to control; conditions: HOP-62, 48 h, read-out: Activity
# [27] = tested on: NCI-H460; assay: Cytotoxicity against human NCI-H460 cells assessed as cell growth at 10 uM after 48 hrs by sulforhodamine B assay relative to control; conditions: NCI-H460, 48 h, read-out: Activity
# [28] = tested on: T47D; assay: Cytotoxicity against human T47D cells assessed as cell growth at 0.1 uM after 48 hrs by sulforhodamine B assay relative to control; conditions: read-out: Activity
# [29] = tested on: SK-MEL-28; assay: Cytotoxicity against human SK-MEL-28 cells assessed as cell growth at 10 uM after 48 hrs by sulforhodamine B assay relative to control; conditions: SK-MEL-28, 48 h, read-out: Activity
# [30] = tested on: MOLT-4; assay: Cytotoxicity against human MOLT4 cells assessed as cell growth at 1 uM after 48 hrs by sulforhodamine B assay relative to control; conditions: MOLT-4, 48 h, read-out: Activity
# [31] = tested on: HOP-62; assay: Cytotoxicity against human HOP62 cells assessed as growth inhibition after 48 hrs by sulforhodamine B assay; conditions: HOP-62, 48 h
# [32] = tested on: SR; assay: Cytotoxicity against human SR cells assessed as cell growth at 1 uM after 48 hrs by sulforhodamine B assay relative to control; conditions: read-out: Activity
# [33] = tested on: IGROV-1; assay: Cytotoxicity against human IGROV1 cells assessed as cell growth at 100 uM after 48 hrs by sulforhodamine B assay relative to control; conditions: IGROV-1, 48 h, read-out: Activity
# [34] = tested on: KM12; assay: Cytotoxicity against human KM12 cells assessed as cell growth at 10 uM after 48 hrs by sulforhodamine B assay relative to control; conditions: KM12, 48 h, read-out: Activity
# [35] = tested on: HCT-15; assay: Cytotoxicity against human HCT15 cells assessed as cell growth at 1 uM after 48 hrs by sulforhodamine B assay relative to control; conditions: HCT-15, 48 h, read-out: Activity
structure (smiles),measurement,setting,value
COc1ccc(-c2cc(/C=C/C(=O)c3ccc(N)cc3)[nH]n2)cc1OC,GI50,[1],4.21 µM
same,TGI,[1],19.3 µM
same,CC50,[1],95.6 µM
same,growth at 0.1 µM,[2],108%
same,GI50,[3],1.89 µM
same,TGI,[3],4.4 µM
same,CC50,[3],11.2 µM
same,growth at 1 µM,[4],96%
same,growth at 100 µM,[5],-53%
same,GI50,[6],1.74 µM
same,LC50 (concentration killing 50% of cells),[6],> 100 µM
same,TGI,[6],7.81 µM
same,growth at 0.01 µM,[7],89%
same,growth at 0.01 µM,[8],99%
same,GI50,[9],8.44 µM
same,LC50 (concentration killing 50% of cells),[9],53.2 µM
same,TGI,[9],22.2 µM
same,growth at 1 µM,[10],87%
same,growth at 10 µM,[11],24%
same,growth at 10 µM,[12],-42%
same,growth at 10 µM,[13],31%
same,growth at 0.01 µM,[14],98%
same,growth at 1 µM,[15],92%
same,growth at 10 µM,[16],20%
same,growth at 0.1 µM,[17],99%
same,growth at 100 µM,[18],-22%
same,growth at 0.1 µM,[19],95%
same,growth at 1 µM,[20],98%
same,growth at 100 µM,[21],-90%
same,growth at 10 µM,[22],10%
same,growth at 10 µM,[23],21%
same,GI50,[24],1.55 µM
same,LC50,[24],7.8 µM
same,TGI,[24],3.48 µM
same,growth at 100 µM,[25],-92%
same,growth at 10 µM,[26],-1%
same,growth at 10 µM,[27],-49%
same,growth at 0.1 µM,[28],90%
same,growth at 10 µM,[29],-29%
same,growth at 1 µM,[30],93%
same,GI50,[31],2.8 µM
same,LC50,[31],32 µM
same,TGI,[31],9.67 µM
same,growth at 1 µM,[32],34%
same,growth at 100 µM,[33],-62%
same,growth at 10 µM,[34],-79%
same,growth at 1 µM,[35],73%
COc1ccc(C(=O)/C=C/c2cc(-c3cc(OC)c(OC)c(OC)c3)n[nH]2)cc1OC,TGI,[1],5.24 µM
same,CC50,[1],22.7 µM
same,growth at 0.1 µM,[2],100%
same,TGI,[3],3.96 µM
same,CC50,[3],8.59 µM
same,growth at 1 µM,[4],91%
same,growth at 100 µM,[5],-67%
same,LC50 (concentration killing 50% of cells),[6],> 100 µM
same,TGI,[6],3.93 µM
same,growth at 0.01 µM,[7],89%
same,growth at 0.01 µM,[8],101%
same,LC50 (concentration killing 50% of cells),[9],6.68 µM
same,TGI,[9],3.51 µM
same,growth at 1 µM,[10],74%
same,growth at 10 µM,[11],-96%
same,growth at 10 µM,[12],-72%
same,growth at 10 µM,[13],-80%
same,growth at 0.01 µM,[14],94%
same,growth at 1 µM,[15],91%
same,growth at 10 µM,[16],-88%
same,growth at 0.1 µM,[17],87%
same,growth at 100 µM,[18],-15%
same,growth at 0.1 µM,[19],95%
same,growth at 1 µM,[20],77%
same,growth at 100 µM,[21],-86%
same,growth at 10 µM,[22],-41%
same,growth at 10 µM,[23],-36%
same,GI50,[24],0.75 µM
same,LC50,[24],5.21 µM
same,TGI,[24],2.18 µM
same,growth at 100 µM,[25],-97%
same,growth at 10 µM,[26],-97%
same,growth at 10 µM,[27],-64%
same,growth at 0.1 µM,[28],98%
same,growth at 10 µM,[29],-88%
same,growth at 1 µM,[30],88%
same,LC50,[31],5.35 µM
same,TGI,[31],2.77 µM
same,growth at 1 µM,[32],11%
same,growth at 100 µM,[33],-73%
same,growth at 10 µM,[34],-87%
same,growth at 1 µM,[35],65%
